Test results: patent publication US6906061B2, “Pharmaceutical agent containing Rho kinase inhibitor” (Mitsubishi Pharma Corporation, priority 1996, dated 2005)
Structures can show the parent of a compound that is named as a salt. Where two headings read alike, the source gives them in different places.

How the values were obtained:
[1] = test system: CEM cells (human T cell type established cell); test: Inhibition of VLA integrin activation (phorbol ester-induced adhesion of CEM cells to fibronectin); type: cell-based; settings: CCRF-CEM, concentration 100 μM, PMA-induced adhesion, read-out: Adhesion induction inhibition (%)
Experimental: Inhibition of VLA (Very Late Antigen) Integrin Activation
As the index of the activation by VLA integrin, phorbol ester-induced adhesion of CEM cells (human T cell type established cell) to fibronectin, which is a ligand of VIA integrin, was measured. The inhibitory action on the induced adhesion by the test compound was determined by the following method.
CEM cells were washed with RPMI1640 medium containing 0.5% bovine serum albumin (BSA), 10 mM HEPES, 2 mM L-glutamin, 1 mM sodium pyruvate, 60 μg/ml kanamycin sulfate and 1.5 mg/ml sodium hydrogencarbonate (hereinafter this medium is referred to as culture solution) and suspended in this medium for use in the following experiment. To each well of a 96 well plate coated with human fibronectin were added CEM cells (5×10^4) and the test compound dissolved in the culture solution (final concentration 1-100 μM) to the amount of 100 μl, and the plate was stood at 37° C. for 1 hour. Then, PMA (phorbol 12-myristate 13-acetate, TPA; final concentration 10 ng/ml) and the test compound were added to the amount of 200 μl, and the plate was stood at 37° C. for 30 minutes. Each well was washed twice with the culture solution (200 μL) at 37° C., and the LDH (lactate dehydrogenase) activity of the cells adhered to the plate was determined, whereby the amount of the adhered cell was measured. Based on the results obtained by the above-mentioned method, the inhibitory action of the test compound on the induced adhesion was calculated by the following formula The results are shown in Table 6. Inhibition (%) of adhesion induction=(a−b)/(a−c)×100 • a=number of cells adhered with the addition of PMA • b=number of cells adhered with the addition of test compound and PMA • c=number of cells adhered without stimulation

[2] = test system: Bovine Aorta Thoracia Rho Kinase; test: Rho kinase inhibitory action (inhibition of bovine aorta thoracia Rho kinase); type: biochemical; settings: test compound 10 μM
Experimental: Rho Kinase Inhibitory Action (Inhibition of Bovine Aorta Thoracia Rho Kinase)
The Rho kinase was prepared from bovine aorta of thorax by partial purification as in the following. The artery was minced and homogenized with a 9-fold amount of 50 mM Tris-hydroxymethylaminomethane (Tris) (pH=7.4), 1 mM dithiothreitol, 1 mM EGTA, 1 mM EDTA, 100 μM p-amidinophenylmethylsulfonyl fluoride, 5 μM E-64, 5 μM leupeptine and 5 μM pepstatin A. The homogenate was centrifuged (10,000×g, 30 minutes) to give supernatant. The supernatant was adsorbed onto a hydroxyapatite column. The column was washed with 0.2M phosphate buffer (pH=6.8). The standard product of Rho kinase was eluted with 0.4M phosphate buffer (pH=6.8). The Rho kinase was assayed as follows.
A reaction mixture (total amount 50 μl) containing 50 mM Tris, 1 mM EDTA, 5 mM MgCl2, 50 μg/ml histone, 10 μM GTPγS, 100 μg/ml Rho, 2 μM [^32P]ATP, the Rho kinase (3 μl) prepared in the above and the test compound was reacted at 30° C. for 5 minutes. The reaction was terminated by the addition of 25% trichloroacetic acid (TCA) solution (1 ml) and the mixture was stood at 4° C. for 30 minutes. Then, the mixture was filtered through a membrane filter (HAWP type, Millipore), and the radioactivity of the filter was counted on a liquid scintillation counter. The inhibitory action of the test compound was calculated from the following formula based on the comparison of the radioactivity with the sample without the test compound (control).

[3] = test system: normal human umberical vascular endothelial cells; test: Inhibition of angiogenesis (lumen formation in vascular endothelial cells); type: cell-based; settings: 18 hours, compared with the control, number rises with inhibition of lumen formation
Experimental: Inhibition of Angiogenesis
The inhibition of angiogenesis was evaluated by using the inhibition of lumen formation in vascular endothelial cell as an index. To be specific, normal human umberical vascular endothelial cells (KURABO […] LTD.) were suspended in E-GMUV medium at 5.5×10^4 cells/ml and 400 μl therefrom was added on matrigel plate (EHS sarcoma-derived reconstructed basement membrane, Collaborative Biomedical Products). Then, the test compound (1 mM solution, 4 μl) was added and the cells were incubated at 37° C. under 5% CO2 gas for 18 hours. After the completion of the incubation, the number of lumen per predetermined area was counted under a microscope. Inasmuch as the number of lumen increases by the inhibition of lumen formation, the test compound was evaluated by comparison of the number of lumen with the control.

[4] = test system: hind limb skin blood flow; test: Peripheral blood flow increasing action in STZ-induced diabetic rats; type: in vivo, rat; settings: intravenous
Experimental: Peripheral Blood Flow Increasing Action
Streptozotocin (STZ, 65 mg/kg) was intravenously injected to male SD rats (body weight 200-300 g) to prepare diabetic rats. One month later, STZ-induced diabetic rats were anesthetized with pentobarbital sodium and the blood flow in the hind limb skin was measured with laser blood flowmeter (ALF21R, Advance). The test compound was intravenously administered via catheter dwelled in the carotid arteries, and hind limb skin blood flow increasing action was observed. The blood flow increasing action of the test compound was expressed by increase percentage from the blood flow before administration.

[5] = test system: mouse femoral bone; test: Inhibition of bone resorption (in vitro), mouse femoral bone; settings: 6 days incubation of ICR mouse femoral bone
Experimental: Inhibition of Bone Resorption (in vitro)
The determination of the in vitro inhibition of bone resorption using mouse femoral bone followed the method below.
The femoral bone of 3-6 week old male ICR mice was aseptically removed, and bone marrow cavity was washed with F12 medium, containing 10% heat inactivated fetal bovine serum, penicillin G calcium (100 units/ml), kanamycin sulfate (60 μg) and 0.15% sodium hydrogencarbonate (hereinafter the medium is to be referred to as culture solution). After washing the bone marrow cavity and then removing the soft tissue adhered to the bone, the bone was subjected to incubation. The test compound was once dissolved in dimethyl sulfoxide (DMSO) to give a 10 mg/ml solution, which was diluted 1000-fold with the culture solution to give a 10 μg/ml solution. The test compounds were respectively added to the concentration shown in Table 7 and, using this culture solution (1.2 ml), the ICR mouse femoral bone was incubated in a 24 well plate for 6 days under the conditions of 5% CO2 gas, 95% air. After the completion of the incubation, the culture supernatant was recovered, and the amount of calcium suspending in the culture supernatant was quantitatively determined by the chelate method using o-cresolphthalein. The bone resorption inhibitory action of the test compound was calculated by the following formula using the incubation of the femoral bone without addition of the test compound as a control. [formula] This experiment was done with 4 cases in each group. As the control, the same amount of DMSO alone as in the case with the addition of the test compound was used.

[6] = test system: BALB/c spleen cells stimulated with C57BL/6 spleen cells; test: Inhibition of mouse allogenic mixed lymphocyte reaction; type: cell-based; settings: 4 days culture, MTT, read-out: Mouse allogenic MLR inhibitory activity IC50
Experimental: Inhibition of Mouse Allogenic Mixed Lymphocyte Reaction
A mouse allogenic mixed lymphocyte reaction (hereinafter to be referred to as mouse allogenic MLR) was performed by mixed culture (equal ratio) of the spleen cell of BALB/c mice as the reaction cell and the spleen cell of C57BL/6 mice treated with mitomycin C as stimulated cell.
The reaction cells were prepared by the following method. Spleen was removed from 5-6 week old BALB/c mice and treated with RPMI1640 medium (containing kanamycin sulfate (60 μg/ml), penicillin G potassium (100 units/ml), N-2-hydroxyethylpiperazine-N′-2-ethanesulfonate (10 mM), 0.1% sodium hydrogencarbonate and L-glutamin (2 mM)) supplemented with 5% heat inactivated fetal bovine serum (FBS) to give a single cell suspension of the spleen cell. After hemolysis treatment, the suspension was adjusted to10^7 cells/ml with RPMI1640 medium containing 10^−4 M 2-mercaptoethanol and 10% FBS and used as a reaction cell suspension.
The reaction cell suspension (50 μl) prepared by the above method, stimulated cell suspension (50 μl) and the test compound (100 μl) prepared using RPMI1640 medium containing 10% FBS were added to a 96 well plate and incubated at 37° C. under 5% CO2 gas, 95% air for 4 days.
A pigment assay using 3-(4,5-dimethylthiazol-2-yl)-2,5-diphenyltetrazolium bromide (MTT) was applied for the determination of lymphocyte transformation reaction.
After the completion of culture, the supernatant (100 μl) in each well was removed, and 5 mg/ml MTT solution (20 μl) was added to each well, which was followed by incubation at 37° C. for 4 hours. Then, a 0.01 N hydrochloric acid solution (100 μl) containing 10% sodium dodecyl sulfate was added and the mixture was incubated at 37° C. overnight. The resulting purple crystals of formazan was dissolved and absorbance at 550 nm was measured using a microplate absorption meter, which was used as the index of lymphocyte transformation reaction of the mouse allogenic MLR. The inhibition of mouse allogenic MLR was evaluated by calculating the inhibition percentage by the following formula The results are shown in Table 7.

| melting point | Compound | also measured |
| --- | --- | --- |
|  | O=S(=O)(c1cccc2cnccc12)N1CCCNCC1 [Compound 204.2HCl, 1-(5-isoquinolinesulfonyl)homopiperazine] | inhibition at 100 µM [1]: 82%; Inhibition (%) [2]: 93%; Number of lumen (10 μM) [3]: 133% |
| 240 to 241 °C | COCn1ncc2c(NC(=O)C3CCNCC3)ccnc21 (hydrate or solvate) [Compound 196, N-(1-methoxymethyl-1H-pyrazolo[3,4-b]pyridin-4-yl)-4-piperidinecarboxamide] |  |
|  | C[C@@H](N)c1ccc(C(=O)Nc2ccnc3[nH]ncc23)cc1 [Compound 166.2HCl.H2O, (R)-(+)-N-(1H-pyrazolo[3,4-b]pyridin-4-yl)-4-(1-aminoethyl)benzamide] | Increase in skin blood flow ± standard error (%) ([4]; 0.3 μg): 143.2 ± 25.4%; Increase in skin blood flow ± standard error (%) ([4]; 1 μg): 165.9 ± 42.5% |
| 273 °C (dec.) | O=C(Nc1ccnc2[nH]ccc12)C1CCNCC1 (as salt: hydrochloride) (hydrate or solvate) [Compound 193, N-(1H-pyrrolo[2,3-b]pyridin-4-yl)-4-piperidinecarboxamide] |  |
| 259 to 261 °C (dec.) | O=C(Nc1ccnc2[nH]ncc12)C1CCN(CCc2ccccc2)CC1 (as salt: hydrochloride) (hydrate or solvate) [Compound 202, N-(1H-pyrazolo[3,4-b]pyridin-4-yl)-1-(2-phenylethyl)-4-piperidinecarboxamide] |  |
| 276 °C (dec.) | O=C(Nc1ccnc2[nH]ccc12)C1CCN(CCCc2ccccc2)CC1 (as salt: hydrochloride) [Compound 200, N-(1H-pyrrolo[2,3-b]pyridin-4-yl)-1-(3-phenylpropyl)-4-piperidinecarboxamide] |  |
| 246 °C (dec.) | N=C(N)N1CCC(C(=O)Nc2ccnc3[nH]ccc23)CC1 (as salt: hydrochloride) (hydrate or solvate) [Compound 199, N-(1H-pyrrolo[2,3-b]pyridin-4-yl)-1-amidino-4-piperidinecarboxamide] |  |
| 260 °C (dec.) | O=C(Nc1ccnc2[nH]ccc12)C1CCN(Cc2ccccc2)CC1 (as salt: hydrochloride) (hydrate or solvate) [Compound 201, N-(1H-pyrrolo[2,3-b]pyridin-4-yl)-1-benzyl-4-piperidinecarboxamide] |  |
|  | CC(N)[C@H]1CC[C@H](C(=O)Nc2ccnc3[nH]ncc23)CC1 (single isomer, unassigned; (+)) [Compound 112.2HCl, (+)-trans-N-(1H-pyrazolo[3,4-b]pyridin-4-yl)-4-(1-aminoethyl)cyclohexanecarboxamide] | inhibition at 100 µM ([5]; 144 h): 75.7%; IC50 ([6]; Mus musculus, Lymphocyte, 96 h): 4400 nM |
| 277 °C (dec.) | O=C(Nc1ccnc2[nH]ncc12)C1CCNCC1 (as salt: hydrochloride) (hydrate or solvate) [Compound 194, N-(1H-pyrazolo[3,4-b]pyridin-4-yl)-4-piperidinecarboxamide] |  |
| 272 °C (dec.) | O=C(Nc1ccnc2[nH]ccc12)C1CCN(CCc2ccccc2)CC1 (as salt: hydrochloride) (hydrate or solvate) [Compound 198, N-(1H-pyrrolo[2,3-b]pyridin-4-yl)-1-(2-phenylethyl)-4-piperidinecarboxamide] |  |
| 235 °C (dec.) | O=C(Nc1ccnc2c1CCN2)C1CCNCC1 (as salt: hydrochloride) (hydrate or solvate) [Compound 197, N-(2,3-dihydro-1H-pyrrolo[2,3-b]pyridin-4-yl)-4-piperidinecarboxamide] |  |
|  | CC(C)(N)[C@H]1CC[C@H](C(=O)Nc2ccnc3[nH]ccc23)CC1 [Compound 110.2HCl.H2O, trans-N-(1H-pyrrolo[2,3-b]pyridin-4-yl)-4-(11-amino-1-methylethyl)cyclohexanecarboxamide] | Bone resorption inhibition % (μM) ([5]; 100 μM): 74.0(100) %; Number of lumen (10 μM) [3]: 203%; IC50 [6]: 1100 nM |
| 240 to 244 °C (dec.) | O=C(Nc1ccnc2[nH]ncc12)C1CCN(CCCc2ccccc2)CC1 (as salt: hydrochloride) (hydrate or solvate) [Compound 203, N-(1H-pyrazolo[3,4-b]pyridin-4-yl)-1-(3-phenylpropyl)-4-piperidinecarboxamide] |  |
